This note sets out measurements from article PMC9176816, “A rapid and sensitive assay for quantifying the activity of both aerobic and anaerobic ribonucleotide reductases acting upon any or all substrates” (PLoS ONE, 2022).

Assay [1] has as its target T1, E. coli class Ia RNR (EcRNR; NrdA/NrdB) (Escherichia coli, UniProt P00452).
T1 construct: both subunits N-terminally His-tagged (tags kept), codon-optimized pET30(a), E. coli T7 Express; NrdA 85774 Da, NrdB 44528 Da; alpha2 and beta2 dimers; with Ribonucleoside-diphosphate reductase 1 subunit beta
T1 sequence (P00452 1-761): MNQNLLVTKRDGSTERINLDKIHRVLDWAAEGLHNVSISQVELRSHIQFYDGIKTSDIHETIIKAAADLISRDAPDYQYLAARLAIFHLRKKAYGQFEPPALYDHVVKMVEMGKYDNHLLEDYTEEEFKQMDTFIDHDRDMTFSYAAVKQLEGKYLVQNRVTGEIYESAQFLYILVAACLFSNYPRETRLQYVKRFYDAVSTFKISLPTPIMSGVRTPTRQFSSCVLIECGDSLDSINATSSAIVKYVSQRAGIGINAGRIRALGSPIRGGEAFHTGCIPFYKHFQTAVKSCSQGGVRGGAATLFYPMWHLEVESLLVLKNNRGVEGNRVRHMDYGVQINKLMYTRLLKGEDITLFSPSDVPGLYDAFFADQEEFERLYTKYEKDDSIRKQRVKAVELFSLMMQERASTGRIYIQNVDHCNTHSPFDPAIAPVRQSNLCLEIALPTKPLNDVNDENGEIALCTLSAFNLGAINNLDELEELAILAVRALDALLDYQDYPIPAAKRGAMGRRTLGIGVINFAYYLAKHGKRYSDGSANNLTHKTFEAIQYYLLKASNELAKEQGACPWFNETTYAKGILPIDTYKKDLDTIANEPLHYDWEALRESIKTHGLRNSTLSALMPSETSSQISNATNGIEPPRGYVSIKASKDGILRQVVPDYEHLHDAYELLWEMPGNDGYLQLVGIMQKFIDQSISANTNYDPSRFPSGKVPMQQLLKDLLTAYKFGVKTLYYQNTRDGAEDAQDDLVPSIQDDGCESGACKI
T1 sequence (P69924 2-376 partner): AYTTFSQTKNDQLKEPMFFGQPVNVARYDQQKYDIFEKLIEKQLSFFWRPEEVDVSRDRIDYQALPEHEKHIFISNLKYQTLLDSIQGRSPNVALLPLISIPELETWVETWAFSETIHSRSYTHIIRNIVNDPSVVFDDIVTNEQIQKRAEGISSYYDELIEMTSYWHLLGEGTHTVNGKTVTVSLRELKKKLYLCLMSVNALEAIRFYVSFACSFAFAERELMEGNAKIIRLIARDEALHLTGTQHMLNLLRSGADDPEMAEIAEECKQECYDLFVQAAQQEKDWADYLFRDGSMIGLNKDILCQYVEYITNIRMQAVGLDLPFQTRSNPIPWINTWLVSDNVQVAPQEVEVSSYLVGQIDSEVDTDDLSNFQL
Nature of the assay: LC-MS/MS of dCDP, dUDP, dADP, dGDP formation. Type of assay: biochemical. To be noted: four substrates (CDP 70, UDP 50, GDP 200, ADP 110 μM), 3 mM ATP, 20 μM dATP, remaining activity, specificity effector, pH 7.6, 37 °C.

Assay [2] has as its target T1, E. coli class Ia RNR (EcRNR; NrdA/NrdB). Nature of the assay: LC-MS/MS of dCDP formation. The format is biochemical. To be noted: relative to 3 mM ATP; 1 mM CDP, dATP printed as 0.175 μM and 175 μM, NrdA 0.1 μM, NrdB 0.5 μM, Trx/TrxR/NADPH, Mg, pH 7.6, 37 °C; allosteric inhibitor.

For the compound `Cc1cn([C@H]2C[C@H](O)[C@@H](COP(=O)(O)OP(=O)(O)OP(=O)(O)O)O2)c(=O)[nH]c1=O` [TTP], the “% of initial activity at 1 mM” value in assay [1] (100 μM dGTP present) stood at 27%. `Nc1ncnc2c1ncn2[C@H]1C[C@H](O)[C@@H](COP(=O)(O)OP(=O)(O)OP(=O)(O)O)O1` [dATP]: the “% inactivation” value in assay [2] is recorded as 99%. On to `Nc1nc2c(ncn2[C@H]2C[C@H](O)[C@@H](COP(=O)(O)OP(=O)(O)OP(=O)(O)O)O2)c(=O)[nH]1` [dGTP], for which the “% of initial activity at 1 mM” value in assay [1] (250 μM TTP present) was 50%.
